Data: ChEMBL document CHEMBL3098055 (Bioorg Med Chem Lett, 2014)
Bridge positions count the residues as written; N and C are the ends. Square brackets hold non-standard residues; d marks the D form. Peptide text beside a SMILES is read from it. AllylGly = C=CC[C@H](N)C(=O)O

Experiments:
Assay type in all cases: cell-based
[1] = target: Somatostatin receptor type 1 (Homo sapiens, UniProt P30872); experiment: Displacement of [125I]-somatostatin from human SSTR1 expressed in CHO-K1 cells
[2] = target: Somatostatin receptor type 4 (Homo sapiens, UniProt P31391); experiment: Displacement of [125I]-somatostatin from human SSTR4 expressed in CHO-K1 cells
[3] = target: Somatostatin receptor type 3 (Homo sapiens, UniProt P32745); experiment: Displacement of [125I]-somatostatin from human SSTR3 expressed in CHO-K1 cells
[4] = target: Somatostatin receptor type 2 (Homo sapiens, UniProt P30874); experiment: Displacement of [125I]-somatostatin from human SSTR2 expressed in CHO-K1 cells
[5] = target: Somatostatin receptor type 5 (Homo sapiens, UniProt P35346); experiment: Displacement of [125I]-somatostatin from human SSTR5 expressed in CHO-K1 cells
Somatostatin receptor type 5, sequence (P35346 whole entry): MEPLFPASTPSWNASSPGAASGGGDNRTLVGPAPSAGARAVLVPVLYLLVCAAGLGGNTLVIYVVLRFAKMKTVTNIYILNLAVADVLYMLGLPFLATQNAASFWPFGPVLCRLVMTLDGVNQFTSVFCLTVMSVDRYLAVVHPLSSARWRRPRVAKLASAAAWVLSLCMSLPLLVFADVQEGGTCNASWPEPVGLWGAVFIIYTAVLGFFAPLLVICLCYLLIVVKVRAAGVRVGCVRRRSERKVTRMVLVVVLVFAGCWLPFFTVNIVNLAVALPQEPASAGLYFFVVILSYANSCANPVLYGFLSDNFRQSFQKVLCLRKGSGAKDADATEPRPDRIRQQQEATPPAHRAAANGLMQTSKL

Somatostatin receptor type 3, sequence (P32745 whole entry): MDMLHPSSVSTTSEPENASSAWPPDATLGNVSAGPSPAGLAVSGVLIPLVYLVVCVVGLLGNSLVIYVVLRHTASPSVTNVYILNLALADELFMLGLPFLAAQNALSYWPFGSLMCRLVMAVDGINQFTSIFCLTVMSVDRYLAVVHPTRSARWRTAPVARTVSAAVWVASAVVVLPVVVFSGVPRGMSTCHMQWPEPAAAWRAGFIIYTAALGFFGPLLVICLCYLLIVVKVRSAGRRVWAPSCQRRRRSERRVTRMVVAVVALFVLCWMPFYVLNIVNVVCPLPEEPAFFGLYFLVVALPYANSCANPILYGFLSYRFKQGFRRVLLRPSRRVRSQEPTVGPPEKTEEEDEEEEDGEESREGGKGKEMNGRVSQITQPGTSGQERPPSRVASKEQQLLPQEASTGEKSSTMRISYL
Somatostatin receptor type 1, sequence (P30872 whole entry): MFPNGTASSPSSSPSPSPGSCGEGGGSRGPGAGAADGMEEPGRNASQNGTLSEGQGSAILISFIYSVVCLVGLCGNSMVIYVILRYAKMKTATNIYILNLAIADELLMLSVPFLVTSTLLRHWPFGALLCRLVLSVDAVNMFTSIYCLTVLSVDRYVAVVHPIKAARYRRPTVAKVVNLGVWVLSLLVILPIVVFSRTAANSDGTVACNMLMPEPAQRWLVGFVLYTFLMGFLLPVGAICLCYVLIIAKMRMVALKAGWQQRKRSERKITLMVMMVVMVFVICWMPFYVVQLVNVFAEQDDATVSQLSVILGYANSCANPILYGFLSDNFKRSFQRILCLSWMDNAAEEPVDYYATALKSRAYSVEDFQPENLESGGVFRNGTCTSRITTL
Somatostatin receptor type 2, sequence (P30874 whole entry): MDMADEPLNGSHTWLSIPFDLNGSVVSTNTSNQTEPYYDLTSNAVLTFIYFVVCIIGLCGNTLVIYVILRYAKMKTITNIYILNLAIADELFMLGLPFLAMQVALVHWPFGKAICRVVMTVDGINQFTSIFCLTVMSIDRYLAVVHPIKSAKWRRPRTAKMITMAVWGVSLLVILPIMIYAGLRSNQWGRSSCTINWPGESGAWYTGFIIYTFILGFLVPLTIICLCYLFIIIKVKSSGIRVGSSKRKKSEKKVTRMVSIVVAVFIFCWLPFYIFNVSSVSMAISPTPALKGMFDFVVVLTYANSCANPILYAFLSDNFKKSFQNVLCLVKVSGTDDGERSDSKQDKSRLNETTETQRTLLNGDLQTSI
Somatostatin receptor type 4, sequence (P31391 whole entry): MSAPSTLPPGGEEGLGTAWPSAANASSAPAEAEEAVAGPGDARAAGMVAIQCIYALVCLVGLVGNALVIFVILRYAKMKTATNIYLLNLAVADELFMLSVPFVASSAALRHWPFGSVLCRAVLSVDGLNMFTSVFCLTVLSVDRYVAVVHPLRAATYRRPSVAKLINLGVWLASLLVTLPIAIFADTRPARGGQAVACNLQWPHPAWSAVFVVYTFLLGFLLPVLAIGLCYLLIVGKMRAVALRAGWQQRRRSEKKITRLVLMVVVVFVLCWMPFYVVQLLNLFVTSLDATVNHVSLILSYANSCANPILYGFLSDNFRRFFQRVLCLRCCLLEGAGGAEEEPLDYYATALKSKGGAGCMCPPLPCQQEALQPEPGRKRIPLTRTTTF

`C[C@H](N)C(=O)NCC(=O)N[C@H]1C/C=C\C[C@@H](C(N)=O)NC(=O)[C@H](CO)NC(=O)[C@H]([C@@H](C)O)NC(=O)[C@H](Cc2ccccc2)NC(=O)[C@H]([C@@H](C)O)NC(=O)[C@H](CCCCN)NC(=O)[C@H](Cc2c[nH]c3ccccc23)NC(=O)[C@H](Cc2ccccc2)NC(=O)[C@H](Cc2ccccc2)NC(=O)[C@H](CC(N)=O)NC(=O)[C@H](CCCCN)NC1=O` (H-AG[AllylGly]KNFFWKTFTS[AllylGly]-NH2; staple (Z) 3-14) gave a Ki [1] of 0.31 nM, a Ki [2] of 1.77 nM and a Ki [3] of 4.24 nM. For the same compound, the Ki [4] was 0.41 nM and the Ki [5] was 0.2 nM.
